How the values were obtained:
[1] = Solubility in IPA/water mixed solvent (FIG. 4); format: physicochemical; conditions: IPA concentration 80 wt %; per 1 g solvent
From the text: The solubility of a compound as a constituent material for each layer in the IPA/water mixed solvent varies depending on the weight ratio of IPA in the mixed solvent. FIG. 4 is a graph illustrating the solubilities of the compound 1 (condensed polycyclic hydrocarbon compound) and the compound A2 (heterocyclic compound) in the IPA/water mixed solvent (polar solvent). Here, in the graph of FIG. 4, the axis of abscissa indicates the weight percent concentration of IPA in the IPA/water mixed solvent, and the axis of ordinate indicates the amount of the condensed polycyclic hydrocarbon compound or heterocyclic compound to dissolve in 1 g of the solvent.

[2] = Etching (dissolution) of deposited layers by IPA/water mixed solvent; format: physicochemical; conditions: IPA 60 wt %; for etching rate: deposited film
From the text: In the present invention, a larger etching rate means a higher dissolution rate. In addition, a larger etching rate means a higher solubility of a layer having a material of interest in the solvent (polar solvent).
FIG. 3 is a graph illustrating thickness changes in the compound 1 and the compound A2 over an etching time. Here, FIG. 3 illustrates the results of the etching of the respective layers when a mixed solvent obtained by mixing isopropyl alcohol (IPA) and water so that IPA may account for 60 wt % (hereinafter, sometimes referred to as “IPA/water mixed solvent”) is used as a solvent formed of a polar solvent.
When the etching rates of the respective layers are calculated with their etching conditions made identical to each other, the etching rate of the layer A is 0.008 nm/sec but the etching rate of the layer B is 0.87 nm/sec, that is, a ratio of the latter to the former is about 100.
Here, a ratio (n) between the etching rates of the organic compound layer (corresponding to the layer A) and the release layer (corresponding to the layer B) by the polar solvent can be represented like the following equation.
Performed next was a second processing step of removing a part of the release layer 30 with a mixed solvent obtained by mixing water and IPA so that an IPA concentration was 60 wt % to reduce the thickness of the release layer 30. It should be noted that as the etching rate of the compound (phenanthroline derivative represented by the formula (2)) constituting the release layer 30 in this example was 0.9 nm/sec, part of the release layer 30 was removed through immersion in the mixed solvent for 530 seconds so that the thinning was performed (FIG. 2M). As a result of the second processing step, the thickness of the release layer 30 became 20 nm. In addition, each release layer subjected to the thinning in the second processing step functions as the charge transport layer (electron transport layer) 23a, 23b, or 23c. Next, vacuum heating was performed at 80° C. so that the solvent remaining on the charge transport layer was removed.

CC1(C)c2cc(-c3ccc4ccc5cccc6ccc3c4c56)ccc2-c2ccc(-c3ccc4ccc5cccc6ccc3c4c56)cc21 [compound 1]
amount dissolving in 1 g of the IPA/water mixed solvent [1]: 5 µg | thickness change over etching time (FIG. 3) [2]: nearly no thickness reduction | etching rate [2]: 0.008 nm/s

CC1(C)c2ccccc2-c2ccc(-c3ccc4ccc5ccc(-c6ccc7c(c6)C(C)(C)c6ccccc6-7)nc5c4n3)cc21 [compound A2]
amount dissolving in 1 g of the IPA/water mixed solvent [1]: 73 µg | thickness change over etching time (FIG. 3) [2]: reduces over time | ratio (n) of etching rate of release layer (layer B, compound A2) to organic compound layer (layer A, compound 1) ([2]; identical etching conditions): about 100 | etching rate [2]: 0.87 nm/s | etching rate ([2]; listed as formula (2)): 0.9 nm/s

c1ccc(-c2cc(-c3ccccc3)cc(-c3cccc(-c4cccc(-c5ccc6c7ccccc7c7ccccc7c6c5)c4)c3)c2)cc1 [compound B1]
etching rate [2]: 1.3 nm/s

O=C1c2ccccc2OC2C=CC(c3cccc(-c4cccc(-c5cc(-c6cccc(-c7ccccc7)c6)cc(-c6cccc(C7C=CC=CC7)c6)c5)c4)c3)=CC12 (stereo not shown) [compound C1]
etching rate [2]: 1.5 nm/s
